Test results as given in PMC8151276, “An Integrated Approach toward NanoBRET Tracers for Analysis of GPCR Ligand Engagement” (Molecules, 2021).

Target: T1, GRM5 (Homo sapiens, UniProt P41594)
T1 construct: purchased Promega (in-house HiBiT-GPCR construct library, NanoBRET)
Experiment: NanoBRET screen HiBiT-GRM5 in HEK293
Type: binding
Protocol: Each tracer candidate was screened across the entire library of HiBiT-GPCR constructs using NanoBRET as the detection modality. As depicted in Figure 4A, the specificity of interactions was evaluated through decrease in BRET due to competitive displacement of a bound tracer by excess parental compound. Each tracer was analyzed for binding to each HiBiT-GPCR fusion in the absence and in the presence of competing parental compound. Briefly, HEK293 cells were transfected with HiBiT-GPCR constructs diluted into promoterless DNA to reduce expression and maximize translocation to the cell surface. Each tracer candidate was then screened at concentrations of 1 μM and 0.1 μM across cells expressing these fusions. Cells were treated for 1.5 h with tracer either alone or in the presence of 20 μM competing parental compound (i.e., control). BRET was measured upon addition of purified LgBiT and subsequent complementation with HiBiT genetically fused to a GPCR. The specificity of interactions was assessed through a decrease in BRET signal due to competitive displacement of the bound tracer. To further gauge the robustness of these interactions, the fold response over the control (i.e., BRETtracer/BRETcontrol) was calculated. We chose a 1.5-fold response, which translates to ≥7-fold signal over noise as the minimal threshold required to score an interaction as positive. […]. Below we highlight the screening results obtained for our exemplary fluorescent tracers based on Clozapine, Amitriptyline and AZD1283.
HiBiT-GPCR DNA constructs were diluted in 10 mM Tris pH 8 to a final concentration of 0.01 μg/μL, arrayed in 96-well plates and stored at −20 °C. For transfection, HEK293 cells were suspended in Opti-MEM (without phenol red) supplemented with 2% fetal bovine serum (Seradigm) and 100 units/mL penicillin–streptomycin (Gibco) at a final concentration of 220,000 cells/mL and dispensed into white 96-well plates at 90 μL/well. Subsequent transfections and screens were carried using an Agilent Bravo Automated Liquid Handling Platform. First, the 96-well HiBiT DNA arrays were diluted 25-fold in Opti-MEM (without serum or phenol red) to a final concentration of 0.0004 μg/μL and 20 μL of the diluted DNAs were transferred into new 96-well plates. Next, promoterless carrier DNA (1 μg/μL) was diluted 25-fold (0.04 μg/μL) and then dispensed into the diluted arrays at 20 μL/well. Following brief mixing, Viafect transfection reagent (Promega) diluted 16-fold into Opti-MEM was dispensed into the plates at 40 μL/well. After mixing by pipetting, plates were incubated for 10 min on the pipetting station deck. The DNA-transfection reagent complexes were then added to plates containing cells. To facilitate the screen, 10 μL of DNA-transfection reagent complexes were added in duplicates to the top 4 and bottom 4 rows, resulting in two identical 48-well arrays per plate. Plates with transfected cells were incubated for 18–20 h at 37 °C/5% CO2. A screen of each tracer across the entire library using two different concentrations requires duplicate plates of transfected cells. Depending on the number of tracers being screened, transfections can be scaled up using the same ratios. The next day, for each tracer, four 20× screening solutions in tracer dilution buffer (Promega) were prepared: two duplicates at final concentration of 20 μM and two duplicates at a final concentration of 2 μM. A competing unmodified compound was added to one of each duplicate at a final concentration of 400 μM. The four resulting solutions were diluted 4-fold in Opti-MEM without serum or phenol red to generate 5× solutions (5 µM and 0.5 µM tracer +/− 100 μM competing compound). To screen the library, a BioTek MultiFlo FX liquid dispenser was used to dispense 22.5 µL of tracer solution to the top 4 rows and 22.5 µL tracer + competing compound solution to the 4 bottom rows. Plates were briefly mixed on an orbital shaker and incubated for 1.5 h at room temperature. […]

T1 sequence (P41594 21-1212): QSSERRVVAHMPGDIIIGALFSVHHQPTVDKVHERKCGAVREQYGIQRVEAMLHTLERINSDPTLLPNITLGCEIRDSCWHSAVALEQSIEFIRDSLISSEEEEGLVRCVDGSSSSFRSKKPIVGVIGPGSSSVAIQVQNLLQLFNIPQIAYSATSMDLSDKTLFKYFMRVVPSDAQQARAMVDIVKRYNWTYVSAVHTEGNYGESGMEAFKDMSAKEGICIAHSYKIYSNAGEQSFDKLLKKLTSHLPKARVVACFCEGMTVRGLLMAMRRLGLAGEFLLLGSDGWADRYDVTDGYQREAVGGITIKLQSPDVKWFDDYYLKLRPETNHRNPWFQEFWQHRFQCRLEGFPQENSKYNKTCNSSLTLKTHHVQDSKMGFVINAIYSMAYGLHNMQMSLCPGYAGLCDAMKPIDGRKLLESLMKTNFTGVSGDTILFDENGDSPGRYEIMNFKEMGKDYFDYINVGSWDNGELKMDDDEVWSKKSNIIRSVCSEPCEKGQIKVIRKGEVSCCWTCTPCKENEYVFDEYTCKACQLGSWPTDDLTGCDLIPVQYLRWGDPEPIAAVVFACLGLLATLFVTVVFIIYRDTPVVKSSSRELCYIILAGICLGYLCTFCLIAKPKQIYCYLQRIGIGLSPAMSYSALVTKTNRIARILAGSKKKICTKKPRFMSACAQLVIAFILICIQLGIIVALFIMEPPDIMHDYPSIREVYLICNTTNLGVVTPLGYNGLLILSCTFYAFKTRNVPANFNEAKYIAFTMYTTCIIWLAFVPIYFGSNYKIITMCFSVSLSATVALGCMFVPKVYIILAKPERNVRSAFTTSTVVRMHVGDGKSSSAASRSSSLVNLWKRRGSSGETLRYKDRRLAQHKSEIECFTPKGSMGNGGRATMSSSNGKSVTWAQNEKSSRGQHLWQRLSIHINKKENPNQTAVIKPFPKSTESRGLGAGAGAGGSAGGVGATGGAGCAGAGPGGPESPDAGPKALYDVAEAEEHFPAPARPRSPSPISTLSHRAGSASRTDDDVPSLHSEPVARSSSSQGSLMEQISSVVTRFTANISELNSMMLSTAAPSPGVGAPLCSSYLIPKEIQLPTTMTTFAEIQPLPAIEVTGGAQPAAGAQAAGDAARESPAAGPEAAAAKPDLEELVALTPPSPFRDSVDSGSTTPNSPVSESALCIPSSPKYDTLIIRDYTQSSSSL

Row | SMILES | NanoBRET Fold Response (GRM5, tracer 0.1μM) | NanoBRET Fold Response (GRM5, tracer 1μM) | other results
1 | Cc1nc2n(c(=O)c1CCN1CCC(c3noc4cc(F)ccc34)CC1)CCCC2OC(=O)NCCOCCOCCOCCOCCNC(=O)CCc1ccc2n1[B-](F)(F)[N+]1=C(c3ccc[nH]3)C=CC1=C2 (centres unmarked) [Risperidone-2-NB590] | 0.98 | 1.02 | –
2 | CCOC(=O)c1cc(C#N)c(N2CCC(C(=O)NS(=O)(=O)Cc3ccccc3/C=C/C(=O)NCCNC(=O)CCc3ccc4n3[B-](F)(F)[N+]3=C(c5ccc[nH]5)C=CC3=C4)CC2)nc1C [AZD1283-1-NB590] | – | – | NanoBRET Fold Response (GRM5, 0.1μM): 1.01; NanoBRET Fold Response (GRM5, 1μM): 0.97
3 | Cc1cc2c(s1)Nc1ccccc1N=C2N1CCN(CCCNC(=O)CCOCCOCCOCCOCCNC(=O)CCc2ccc3n2[B-](F)(F)[N+]2=C(c4ccc[nH]4)C=CC2=C3)CC1 [Olanzapine-a-2-NB590] | 0.95 | 0.97 | –
4 | COc1ccccc1N1CCN(CCCCN2C(=O)c3ccc(CNC(=O)CCOCCNC(=O)c4ccc(CNC(=O)CCc5ccc6n5[B-](F)(F)[N+]5=C(c7ccc[nH]7)C=CC5=C6)cc4)cc3C2=O)CC1 [NAN-190-3-NB590] | 1.05 | 1.15 | –
5 | CC(C)N(CC[C@H](c1ccccc1)c1cc(CCNC(=O)CCOCCOCCOCCOCCNC(=O)CCc2ccc3n2[B-](F)(F)[N+]2=C(c4ccc[nH]4)C=CC2=C3)ccc1O)C(C)C [Tolterodine-2-NB590] | 0.99 | 0.87 | –
6 | CN(C)CCC=C1c2ccccc2CCc2ccc(C(=O)NCCNC(=O)CCOCCOCCOCCOCCNC(=O)CCc3ccc4n3[B-](F)(F)[N+]3=C(c5ccc[nH]5)C=CC3=C4)cc21 [Amitriptyline-b-2-NB590] | 1.05 | 1.02 | –
7 | O=C(CCOCCOCCOCCOCCNC(=O)CCc1ccc2n1[B-](F)(F)[N+]1=C(c3ccc[nH]3)C=CC1=C2)NCCCN1CCN(C2=Nc3ccccc3Oc3ccc(Cl)cc32)CC1 [Loxapine-a-2-NB590] | 1.00 | 1.04 | –
8 | O=C(CCc1ccc2n1[B-](F)(F)[N+]1=C(c3ccc[nH]3)C=CC1=C2)NCCOCCOCCNC(=O)OCCOCCN1CCN(C2=Nc3ccccc3Sc3ccccc32)CC1 [Quetiapine-a-2-NB590] | 1.08 | 1.05 | –
9 | COc1ccccc1N1CCN(CCCCN2C(=O)c3ccc(CNC(=O)CCOCCOCCOCCOCCNC(=O)CCc4ccc5n4[B-](F)(F)[N+]4=C(c6ccc[nH]6)C=CC4=C5)cc3C2=O)CC1 [NAN-190-2-NB590] | 0.96 | 1.04 | –
10 | CN1CCN(C2=Nc3cc(Cl)ccc3N(CC(=O)NCCOCCOCCOCCOCCNC(=O)CCc3ccc4n3[B-](F)(F)[N+]3=C(c5ccc[nH]5)C=CC3=C4)c3ccccc32)CC1 [Clozapine-c-2-NB590] | – | – | NanoBRET Fold Response (GRM5, 0.1μM tracer): 0.99; NanoBRET Fold Response (GRM5, 1μM tracer): 1.12
11 | COc1ccc2[nH]c(-c3ccc(CNC(=O)CCOCCOCCOCCOCCNC(=O)CCc4ccc5n4[B-](F)(F)[N+]4=C(c6ccc[nH]6)C=CC4=C5)cc3)c(CCNC(C)=O)c2n1 [AzomelatoninICO9-2-NB590] | – | – | NanoBRET Fold Response (0.1μM tracer): 0.97; NanoBRET Fold Response (1μM tracer): 1.03
12 | O=C(CCOCCOCCOCCOCCNC(=O)CCc1ccc2n1[B-](F)(F)[N+]1=C(c3ccc[nH]3)C=CC1=C2)NCCCN1CCN(C2=Nc3cc(Cl)ccc3Nc3ccccc32)CC1 [Clozapine-a-2-NB590] | – | – | NanoBRET Fold Response (GRM5, 0.1μM tracer): 0.99; NanoBRET Fold Response (GRM5, 1μM tracer): 1.10
13 | CCCn1c(=O)c2[nH]c(-c3ccc(OCC(=O)NCCNC(=O)CCOCCNC(=O)c4ccc(CNC(=O)CCc5ccc6n5[B-](F)(F)[N+]5=C(c7ccc[nH]7)C=CC5=C6)cc4)cc3)nc2n(CCC)c1=O [XAC-3-NB590] | 1.01 | 0.98 | –
14 | O=C(CCc1ccc2n1[B-](F)(F)[N+]1=C(c3ccc[nH]3)C=CC1=C2)NCc1ccc(C(=O)NCCOCCOCCNCC(O)COc2cccc3ccccc23)cc1 (centres unmarked) [Propranolol-3-NB590] | – | – | NanoBRET Fold Response (GRM5, 0.1μM): 1.04; NanoBRET Fold Response (GRM5, 1μM): 1.02
15 | O=C(CCc1ccc2n1[B-](F)(F)[N+]1=C(c3ccc[nH]3)C=CC1=C2)NCc1ccc(C(=O)NCCOCCC(=O)N[C@@H]2CC[C@@]3(O)[C@H]4Cc5ccc(O)c6c5[C@@]3(CCN4CC3CC3)[C@H]2O6)cc1 [Naltrexone-3-NB590] | 1.25 | 1.14 | –
16 | N#CN=C(NCCCOc1cccc(CN2CCCCC2)c1)NCCNC(=O)CCOCCOCCOCCOCCNC(=O)CCc1ccc2n1[B-](F)(F)[N+]1=C(c3ccc[nH]3)C=CC1=C2 [Aminopotentidine-2-NB590] | 1.01 | 0.98 | –
17 | COc1ccc2c(n1)c(CCNC(C)=O)cn2CCNC(=O)CCc1ccc2n1[B-](F)(F)[N+]1=C(c3ccc[nH]3)C=CC1=C2 [Azamelatonin-1-NB590] | – | – | NanoBRET Fold Response (0.1μM tracer): 0.84; NanoBRET Fold Response (1μM tracer): 0.95
18 | CC(C)N(CC[C@H](c1ccccc1)c1cc(CCNC(=O)c2ccc(CNC(=O)CCc3ccc4n3[B-](F)(F)[N+]3=C(c5ccc[nH]5)C=CC3=C4)cc2)ccc1O)C(C)C [Tolterodine-BZ-NB590] | 1.00 | 1.05 | –
19 | CN1CCN(C2=Nc3cc(Cl)ccc3Nc3ccc(CNC(=O)CCOCCOCCOCCOCCNC(=O)CCc4ccc5n4[B-](F)(F)[N+]4=C(c6ccc[nH]6)C=CC4=C5)cc32)CC1 [Clozapine-b-2-NB590] | – | – | NanoBRET Fold Response (GRM5, 0.1μM tracer): 0.99; NanoBRET Fold Response (GRM5, 1μM tracer): 1.01
